Measured values reported in the NIST ThermoML archive (doi:10.1021/acs.jced.8b00192).
± gives the expanded uncertainty stated by the source.

Experiments:
[1] = Crystal; DTA
[2] = Molar enthalpy of transition or fusion; conditions: Crystal; DSC

Row | SMILES | Normal melting temperature [1] | Molar enthalpy of transition or fusion [2]
1 | CC(=O)c1ccc([N+](=O)[O-])cc1 [1-(4-nitrophenyl)ethanone] | 81.00 ± 1.1 °C | 5.72 ± 0.225 kcal/mol
2 | CC(=O)c1cccc([N+](=O)[O-])c1 [1-(3-nitrophenyl)ethanone] | 76.53 ± 1.1 °C | 3.86 ± 0.21 kcal/mol
